From ChEMBL document CHEMBL3576842, “Selenium-containing chrysin and quercetin derivatives: attractive scaffolds for cancer therapy” (J Med Chem, 2015)
Active and inactive are the calls of the source. The rule behind the calls is not given here.

Legend:
HEK293 [1] = experiment: Selectivity index, ratio of IC50 for HEK293 cells to IC50 for human A375 cells; assay type: functional
HEK293 [2] = experiment: Selectivity index, ratio of IC50 for HEK293 cells to IC50 for cisplatin-resistant human A431 cells; assay type: functional
[3] = Antioxidant activity assessed as DPPH radical scavenging activity at 1 mM after 1 hr; assay type: physicochemical; settings: 1000 µM
HCT-15 = experiment: Cytotoxicity against human HCT15 cells assessed as cell growth inhibition after 72 hrs by MTT assay; assay type: functional, cell-based; settings: HCT-15, 72 h
HEK293 [4] = experiment: Selectivity index, ratio of IC50 for HEK293 cells to IC50 for human A431 cells; assay type: functional
HEK293 [5] = experiment: Cytotoxicity against HEK293 cells assessed as cell growth inhibition after 72 hrs by MTT assay; assay type: cell-based; settings: Homo sapiens, HEK293, 72 h
[6] = Cytotoxicity against human C13 cells assessed as cell growth inhibition after 72 hrs by MTT assay; assay type: functional, cell-based; settings: C13, 72 h
HEK293 [7] = experiment: Selectivity index, ratio of IC50 for HEK293 cells to IC50 for human 2008 cells; assay type: functional
C13 [8] = experiment: Selectivity index, ratio of IC50 for HEK293 cells to IC50 for human C13 cells; assay type: functional
A-431 [9] = experiment: Cytotoxicity against cisplatin-resistant human A431 cells assessed as cell growth inhibition after 72 hrs by MTT assay; assay type: functional, cell-based; settings: A-431, 72 h
HEK293 [10] = experiment: Selectivity index, ratio of IC50 for HEK293 cells to IC50 for human HCT15 cells; assay type: functional
HEK293 [11] = experiment: Selectivity index, ratio of IC50 for HEK293 cells to IC50 for human BxPC3 cells; assay type: functional
[12] = Cytotoxicity against human MCF7/ADR cells assessed as cell growth inhibition after 72 hrs by MTT assay; assay type: functional, cell-based; settings: NCI/ADR-RES
A-431 [13] = experiment: Cytotoxicity against human A431 cells assessed as cell growth inhibition after 72 hrs by MTT assay; assay type: functional, cell-based; settings: A-431, 72 h
2008 = experiment: Cytotoxicity against human 2008 cells assessed as cell growth inhibition after 72 hrs by MTT assay; assay type: functional, cell-based; settings: Homo sapiens, 2008, 72 h
NCI/ADR-RES [14] = experiment: Selectivity index, ratio of IC50 for HEK293 cells to IC50 for human MCF7/ADR cells; assay type: functional
HEK293 [15] = experiment: Selectivity index, ratio of IC50 for HEK293 cells to IC50 for human MCF7 cells; assay type: functional
MCF7 [16] = experiment: Cytotoxicity against human MCF7 cells assessed as cell growth inhibition after 72 hrs by MTT assay; assay type: functional, cell-based; settings: MCF7, 72 h
[17] = Cytotoxicity against human BxPC3 cells assessed as cell growth inhibition after 72 hrs by MTT assay; assay type: functional, cell-based; settings: BXPC-3, 72 h
A-431 [18] = experiment: Resistance factor, ratio of IC50 for cisplatin-resistant human A431 cells to IC50 for human A431 cells; assay type: functional
A-375 = experiment: Cytotoxicity against human A375 cells assessed as cell growth inhibition after 72 hrs by MTT assay; assay type: functional, cell-based; settings: A-375, 72 h
MCF7 [19] = experiment: Increase in oxidized glutathione level in human MCF7 cells at IC50 after 48 hrs by spectrophotometric analysis; assay type: functional
MCF7 [20] = experiment: Effect on glutathione peroxidase activity in human MCF7 cells using tert-butyl hydroperoxide and GSH as substrate at 1.25 to 20 uM after 24 hrs by spectrophotometric analysis; assay type: cell-based
C13 [21] = experiment: Resistance factor, ratio of IC50 for cisplatin-resistant human C13 cells to IC50 for human 2008 cells; assay type: functional
MCF7 [22] = experiment: Drug uptake in human MCF7 cells assessed as intracellular Se accumulation at 12.5 to 25 uM after 12 to 24 hrs by GF-AAS analysis; assay type: ADME, cell-based; settings: mcf7, 25 µM
NCI/ADR-RES [23] = experiment: Resistance factor, ratio of IC50 for human MCF7/ADR cells to IC50 for human MCF7 cells; assay type: functional
MCF7 [24] = experiment: Decrease in total sulfhydryl gropus in human MCF7 cells at IC50 after 24 hrs by DTNB reduction assay; assay type: functional
[25] = Antioxidant activity assessed as glutathione peroxidase-like activity measured as time required to oxidize dithiothretol by 50% after addition of H2O2 at 3.24 umol; assay type: physicochemical
MCF7 [26] = experiment: Anticlonogenic activity against human MCF7 cells assessed as inhibition of clonogenic expansion after 6 hrs; assay type: functional, cell-based
MCF7 [27] = experiment: Induction of apoptosis in human MCF7 cells assessed as decrease in mitochondrial membrane potential at IC50 after 48 hrs by flow cytometry; assay type: functional
MCF7 [28] = experiment: Decrease in total glutathione level in human MCF7 cells at IC50 after 48 hrs by spectrophotometric analysis; assay type: functional
[29] = target: T1, Thioredoxin reductase (Homo sapiens) (UniProt Q16881+Q9NNW7+Q86VQ6); experiment: Inhibition of thioredoxin reductase activity in human MCF7 cells at 20 uM after 24 hrs by DTNB reduction assay; assay type: cell-based
[30] = Antioxidant activity assessed as DPPH radical scavenging activity after 1 hr; assay type: physicochemical
[31] = target: T1, Thioredoxin reductase (Homo sapiens); experiment: Increase in thioredoxin reductase activity in HEK293 cells at 0.0625 to 0.625 uM after 24 hrs by DTNB reduction assay; assay type: cell-based; parameters: scale not given: the % may be the effect or the level left
MCF7 [32] = experiment: Increase in oxidant species production in human MCF7 cells at 25 uM by CM-DCFDA based fluorescence plate reader analysis; assay type: functional, cell-based
MCF7 [33] = experiment: Induction of apoptosis in human MCF7 cells assessed as caspase-3 activation using DEVD-AFC as substrate at IC50 after 48 hrs by spectrofluorimeter analysis; assay type: functional
[34] = target: T2, Glutathione reductase, mitochondrial (Homo sapiens) (UniProt P00390); experiment: Effect on glutathione reductase activity in human MCF7 cells using GSSG as substrate at 1.25 to 20 uM after 24 hrs by spectrophotometric analysis; assay type: cell-based
T2 sequence (whole entry): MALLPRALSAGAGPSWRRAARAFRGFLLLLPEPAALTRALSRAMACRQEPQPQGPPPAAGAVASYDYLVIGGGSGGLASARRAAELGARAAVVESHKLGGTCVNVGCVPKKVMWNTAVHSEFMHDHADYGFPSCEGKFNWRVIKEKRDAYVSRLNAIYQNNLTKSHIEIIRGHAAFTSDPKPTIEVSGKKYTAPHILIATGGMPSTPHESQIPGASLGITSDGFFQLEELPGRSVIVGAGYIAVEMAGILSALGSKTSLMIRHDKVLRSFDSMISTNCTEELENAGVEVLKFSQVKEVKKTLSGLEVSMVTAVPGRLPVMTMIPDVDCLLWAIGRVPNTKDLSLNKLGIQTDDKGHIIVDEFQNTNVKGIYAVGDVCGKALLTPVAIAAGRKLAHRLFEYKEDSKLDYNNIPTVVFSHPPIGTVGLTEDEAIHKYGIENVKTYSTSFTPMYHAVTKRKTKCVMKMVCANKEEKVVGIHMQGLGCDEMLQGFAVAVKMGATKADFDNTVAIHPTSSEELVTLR

MCF7 [35] = experiment: Induction of apoptosis in human MCF7 cells assessed as brightly stained nuclei, chromatin condensation and fragmentation at IC50 after 48 hrs by Hoechst 33258/PI fluorescent staining analysis; assay type: functional, cell-based
[36] = target: T1, Thioredoxin reductase (Homo sapiens); experiment: Inhibition of thioredoxin reductase activity in human MCF7 cells after 24 hrs by DTNB reduction assay; assay type: cell-based

Row | SMILES | Ratio IC50 (HEK293 [1]) | Ratio IC50 (HEK293 [2]) | IC50 (HCT-15) [µM] | Ratio IC50 (HEK293 [4]) | IC50 (HEK293 [5]) [µM] | IC50 [6] [µM] | Ratio IC50 (HEK293 [7]) | Ratio IC50 (C13 [8]) | IC50 (A-431 [9]) [µM] | Ratio IC50 (HEK293 [10]) | Ratio IC50 (HEK293 [11]) | IC50 [12] [µM] | IC50 (A-431 [13]) [µM] | IC50 2008 [µM] | Ratio IC50 (NCI/ADR-RES [14]) | Ratio IC50 (HEK293 [15]) | IC50 (MCF7 [16]) [µM] | IC50 [17] [µM] | Ratio IC50 (A-431 [18]) | IC50 (A-375) [µM] | further results
1 | COc1cc(O)c2c(=O)c(OC)c(-c3ccc(OC)c(OC)c3)oc2c1 [RETUSIN] | 1.6 | 1.6 | 68.1 | 1.6 | 142 | > 100 | 1.6 | 1.6 | 82.2 | 1.6 | 1.6 | > 100 | 57.5 | > 100 | 1.6 | 1.6 | > 100 | > 100 | 1.4 | 69.7 | Activity [3]: 2.5%
2 | Oc1cc(O)c2c(=[Se])cc(-c3ccccc3)oc2c1 | 3.7 | 3.7 | 3.17 | 3.7 | 8.13 | 4.04 | 3.7 | 3.7 | 3.18 | 3.7 | 3.7 | 1.96 | 1.61 | 2.87 | 3.7 | 3.7 | 2.25 | 2.31 | 2 | 1.09 | fold change (FC) (MCF7 [19]): 4; Activity (MCF7 [20]): inactive; Ratio IC50 (C13 [21]): 1.4; Drug uptake (MCF7 [22]): Active; Ratio IC50 (NCI/ADR-RES [23]): 0.9; inhibition (INH) (MCF7 [24]): 60%; Time [25]: 3.62 min; inhibition (MCF7 [26]): Active; fold change (FC) (MCF7 [27]): 4; inhibition (INH) (MCF7 [28]): 60%; inhibition [29]: 75%; IC50 [30]: 659 µM; Activity [31]: 35%; Activity (MCF7 [32]): Active; fold change (FC) (MCF7 [33]): 4; Activity [34]: inactive; Activity (MCF7 [35]): Active
3 | O=c1c(O)c(-c2ccc(O)c(O)c2)oc2cc(O)cc(O)c12 [QUERCETIN] | 2.5 | 2.5 | 16.4 | 2.5 | 54.6 | 37.6 | 2.5 | 2.5 | 34.4 | 2.5 | 2.5 | 22.2 | 23 | 21.2 | 2.5 | 2.5 | 20.9 | 24.1 | 1.5 | 25.1 | Ratio IC50 (C13 [21]): 1.8; Ratio IC50 (NCI/ADR-RES [23]): 1.1; Activity [3]: 95.6%; IC50 [30]: 28 µM
4 | COc1cc(O)c2c(=[Se])c(OC)c(-c3ccc(OC)c(OC)c3)oc2c1 | 5.1 | 5.1 | 2.23 | 5.1 | 17.3 | 2.29 | 5.1 | 5.1 | 3.78 | 5.1 | 5.1 | 3.35 | 3.11 | 2.09 | 5.1 | 5.1 | 3.08 | 2.42 | 1.2 | 2.21 | Activity (MCF7 [20]): inactive; Drug uptake (MCF7 [22]): Active; Ratio IC50 (NCI/ADR-RES [23]): 1.1; Activity [3]: 90.4%; inhibition (INH) (MCF7 [24]): 60%; Time [25]: 4.34 min; inhibition (MCF7 [26]): Active; fold change (FC) (MCF7 [27]): 4; inhibition (MCF7 [28]): Active; IC50 [30]: 74 µM; Activity [31]: 35%; fold change (FC) (MCF7 [33]): 4; Activity [34]: inactive; Activity (MCF7 [35]): Active; inhibition [36]: Active
